# Values quoted from earlier work as cited in PubChem BioAssay AID1259409 (Chemical Carcinogenesis Research Information System (CCRIS), 2018).
# Test system: rodent chemically induced tumor inhibition, incidence and multiplicity
# Experiment: CCRIS tumor inhibitor studies
compound,measurement,setting,value
Oc1ccccc1O,"tumour outcome (control, treated, inhibition, significance)","Carcinogen: 3,2'-DIMETHYL-4-AMINOBIPHENYL, 13394-86-0, Dose [Inhibitor]: 0, 0.8% IN BASAL DIET BEGINNING POST CARCINOGEN TREATMENT AND CONTINUING FOR 40 (STUDY DURATION: 60 WK), Route [Inhibitor]: ORAL, Species: RAT, Strain/Sex: F344/MALE, Target Tissue: Type of Lesion: SUBCUTIS: TUMOR, Dose [Carcinogen]: 50 MG/KG 1/2 WK FOR 20 WK TO RATS MAINTAINED ON ETHINYL ESTRADIOL CONTAINING DIET (0.75 PPM) FOR 1 WK CYCLED WITH ETHINY, Promoter: ETHINYL ESTRADIOL, 57-63-6","1/10 (10%), 1/11 (9%), 10%, not significant"
same,"tumour outcome (control, treated, inhibition, significance)","Carcinogen: 3,2'-DIMETHYL-4-AMINOBIPHENYL, 13394-86-0, Dose [Inhibitor]: 0, 0.8% IN BASAL DIET BEGINNING POST CARCINOGEN TREATMENT AND CONTINUING FOR 40 WK (STUDY DURATION: 60 WK), Route [Inhibitor]: ORAL, Species: RAT, Strain/Sex: F344/MALE, Target Tissue: Type of Lesion: LARGE INTESTINE: ADENOMA AND ADENOCARCINOMA, Dose [Carcinogen]: 50 MG/KG 1/2 WK FOR 20 WK TO RATS MAINTAINED ON ETHINYL ESTRADIOL CONTAINING DIET (0.75 PPM) FOR 1 WK CYCLED WITH ETHINY, Promoter: ETHINYL ESTRADIOL, 57-63-6","3/10 (30%), 5/11 (45%), -50%, not significant"
same,"tumour outcome (control, treated, inhibition, significance)","Carcinogen: 3,2'-DIMETHYL-4-AMINOBIPHENYL, 13394-86-0, Dose [Inhibitor]: 0, 0.8% IN BASAL DIET BEGINNING POST CARCINOGEN TREATMENT AND CONTINUING FOR 40 WK (STUDY DURATION: 60 WK), Route [Inhibitor]: ORAL, Species: RAT, Strain/Sex: F344/MALE, Target Tissue: Type of Lesion: PANCREAS: ACINAR CELL NODULE, Dose [Carcinogen]: 50 MG/KG 1/2 WK FOR 20 WK TO RATS MAINTAINED ON ETHINYL ESTRADIOL CONTAINING DIET (0.75 PPM) FOR 1 WK CYCLED WITH ETHINY, Promoter: ETHINYL ESTRADIOL, 57-63-6","4/10 (40%), 4/11 (36%), 10%, not significant"
same,"tumour outcome (control, treated, inhibition, significance)","Carcinogen: 3,2'-DIMETHYL-4-AMINOBIPHENYL, 13394-86-0, Dose [Inhibitor]: 0, 0.8% IN BASAL DIET BEGINNING POST CARCINOGEN TREATMENT AND CONTINUING FOR 40 WK (STUDY DURATION: 60 WK), Route [Inhibitor]: ORAL, Species: RAT, Strain/Sex: F344/MALE, Target Tissue: Type of Lesion: PREPUTIAL GLAND: ADENOMA AND CARCINOMA, Dose [Carcinogen]: 50 MG/KG 1/2 WK FOR 20 WK TO RATS MAINTAINED ON ETHINYL ESTRADIOL CONTAINING DIET (0.75 PPM) FOR 1 WK CYCLED WITH ETHINY, Promoter: ETHINYL ESTRADIOL, 57-63-6","5/10 (50%), 4/11 (36%), 28%, not significant"
same,"tumour outcome (control, treated, inhibition, significance)","Carcinogen: 3,2'-DIMETHYL-4-AMINOBIPHENYL, 13394-86-0, Dose [Inhibitor]: 0, 0.8% IN BASAL DIET BEGINNING POST CARCINOGEN TREATMENT AND CONTINUING FOR 40 WK (STUDY DURATION: 60 WK), Route [Inhibitor]: ORAL, Species: RAT, Strain/Sex: F344/MALE, Target Tissue: Type of Lesion: PROSTATE: CARCINOMA, Dose [Carcinogen]: 50 MG/KG 1/2 WK FOR 20 WK TO RATS MAINTAINED ON ETHINYL ESTRADIOL CONTAINING DIET (0.75 PPM) FOR 1 WK CYCLED WITH ETHINY, Promoter: ETHINYL ESTRADOL, 57-63-6","5/10 (50%), 3/11 (27%), 46%, not significant"
same,"tumour outcome (control, treated, inhibition, significance)","Carcinogen: 3,2'-DIMETHYL-4-AMINOBIPHENYL, 13394-86-0, Dose [Inhibitor]: 0, 0.8% IN BASAL DIET BEGINNING POST CARCINOGEN TREATMENT AND CONTINUING FOR 40 WK (STUDY DURATION: 60 WK), Route [Inhibitor]: ORAL, Species: RAT, Strain/Sex: F344/MALE, Target Tissue: Type of Lesion: SMALL INTESTINE: ADENOMA AND ADENOCARCINOMA, Dose [Carcinogen]: 50 MG/KG 1/2 WK FOR 20 WK TO RATS MAINTAINED ON ETHINYL ESTRADIOL CONTAINING DIET (0.75 PPM) FOR 1 WK CYCLED WITH ETHINY, Promoter: ETHINYL ESTRADIOL, 57-63-6","2/10 (20%), 1/11 (9%), 55%, not significant"
same,"tumour outcome (control, treated, inhibition, significance)","Carcinogen: 3,2-DIMETHYL-4-AMINOBIPHENYL, 13394-86-0, Dose [Inhibitor]: 0, 0.8% IN BASAL DIET BEGINNING POST CARCINOGEN TREATMENT AND CONTINUING FOR 40 WK (STUDY DURATION: 60 WK), Route [Inhibitor]: ORAL, Species: RAT, Strain/Sex: F344/MALE, Target Tissue: Type of Lesion: ZYMBAL GLAND: ADENOMA AND CARCINOMA, Dose [Carcinogen]: 50 MG/KG 1/2 WK FOR 20 WK TO RATS MAINTAINED ON ETHINYL ESTRADIOL CONTAINING DIET (0.75 PPM) FOR 1 WK CYCLED WITH ETHINY, Promoter: ETHINYL ESTRADIOL, 57-63-6","2/10 (20%), 0/11 (0%), 100%, not significant"
same,"tumour outcome (control, treated, inhibition, significance)","Carcinogen: 7,12-DIMETHYLBENZ[A]ANTHRACENE, 57-97-6, Dose [Inhibitor]: 0, 0.4% IN DIET FOR 35 WK BEGINNING POST CARCINOGEN DOSE (STUDY DURATION: 36 WK), Route [Inhibitor]: ORAL, Species: RAT, Strain/Sex: SPRAGUE-DAWLEY/FEMALE, Target Tissue: Type of Lesion: EAR DUCT: TUMOR, Dose [Carcinogen]: 50 MG/KG BW IN CORN OIL ONCE, Promoter: NONE USED","5/15 (33%), 2/15 (13%), 61%, not significant"
same,"tumour outcome (control, treated, inhibition, significance)","Carcinogen: 7,12-DIMETHYLBENZ[A]ANTHRACENE, 57-97-6, Dose [Inhibitor]: 0, 0.4% IN DIET FOR 35 WK BEGINNING POST CARCINOGEN DOSE (STUDY DURATION: 36 WK), Route [Inhibitor]: ORAL, Species: RAT, Strain/Sex: SPRAGUE-DAWLEY/FEMALE, Target Tissue: Type of Lesion: MAMMARY GLAND: ADENOCARCINOMA, Dose [Carcinogen]: 50 MG/KG BW IN CORN OIL ONCE, Promoter: NONE USED","14/15 (93%), 15/15 (100%), -8%, not significant"
same,"tumour outcome (control, treated, inhibition, significance)","Carcinogen: 7,12-DIMETHYLBENZ[A]ANTHRACENE, 57-97-6, Dose [Inhibitor]: 0, 0.4% IN DIET FOR 35 WK BEGINNING POST CARCINOGEN DOSE (STUDY DURATION: 36 WK), Route [Inhibitor]: ORAL, Species: RAT, Strain/Sex: SPRAGUE-DAWLEY/FEMALE, Target Tissue: Type of Lesion: MAMMARY GLAND: FIBROADENOMA, Dose [Carcinogen]: 50 MG/KG BW IN CORN OIL ONCE, Promoter: NONE USED","3/15 (20%), 0/15 (0%), 100%, not significant"
same,"tumour outcome (control, treated, inhibition, significance)","Carcinogen: 7,12-DIMETHYLBENZ[A]ANTHRACENE, 57-97-6, Dose [Inhibitor]: 0, 12 MG 2/WK FOR 30 WK APPLIED 20 MIN PRIOR TO EACH PROMOTER DOSE (STUDY DURATION: 32 WK), Route [Inhibitor]: DERMAL, Species: MOUSE, Strain/Sex: SENCAR/FEMALE, Target Tissue: Type of Lesion: SKIN: PAPILLOMA, Dose [Carcinogen]: 25 NMOL ONCE, Promoter: M-CHLOROPEROXYBENZOIC ACID, 937-14-4","39%, 0%, 100%, not calculated"
same,"tumour outcome (control, treated, inhibition, significance)","Carcinogen: BENZO[A]PYRENE, 50-32-8, Dose [Inhibitor]: 2 MG IN 0.1 ML ACETONE 3/WK ADMINISTERED SIMULTANEOUSLY WITH CARCINOGEN FOR DURATION OF STUDY (STUDY DURATION: 368 D), Route [Inhibitor]: DERMAL, Species: MOUSE, Strain/Sex: ICR/FEMALE, Target Tissue: Type of Lesion: SKIN: PAPILLOMA, Dose [Carcinogen]: 5 UG IN 0.1 ML ACETONE 3/WK FOR DURATION OF STUDY, Promoter: NONE USED","14/50 (28%), 36/50 (72%), -157%, not calculated"
same,"tumour outcome (control, treated, inhibition, significance)","Carcinogen: BENZO[A]PYRENE, 50-32-8, Dose [Inhibitor]: 2 MG IN 0.1 ML ACETONE 3/WK ADMINISTERED SIMULTANEOUSLY WITH CARCINOGEN FOR DURATION OF STUDY (STUDY DURATION: 368 D), Route [Inhibitor]: DERMAL, Species: MOUSE, Strain/Sex: ICR/FEMALE, Target Tissue: Type of Lesion: SKIN: SQUAMOUS CARCINOMA, Dose [Carcinogen]: 5 UG IN 0.1 ML ACETONE 3/WK FOR DURATION OF STUDY, Promoter: NONE USED","10/50 (20%), 31/50 (62%), -210%, not calculated"
same,"tumour outcome (control, treated, inhibition, significance)","Carcinogen: N-BIS(2-HYDROXYPROPYL)NITROSAMINE, 53609-64-6, Dose [Inhibitor]: 0, 0.8% IN DIET FOR 30 WK BEGINNING POST CARCINOGEN TREATMENT (STUDY DURATION: 32 WK), Route [Inhibitor]: ORAL, Species: RAT, Strain/Sex: F344/MALE, Target Tissue: Type of Lesion: BLADDER: ADENOMA, Dose [Carcinogen]: 0.1% IN DRINKING WATER FOR 2 WK, Promoter: NONE USED","5%, 0%, 100%, not calculated"
